In BindingDB's records for patent US11066406 (Janssen Pharmaceutica, 2021):

Target: T1, Tyrosine-protein kinase JAK3 [512-1124] (Homo sapiens, UniProt P52333)
T1 construct: 512-1124
T1 sequence (P52333 whole entry): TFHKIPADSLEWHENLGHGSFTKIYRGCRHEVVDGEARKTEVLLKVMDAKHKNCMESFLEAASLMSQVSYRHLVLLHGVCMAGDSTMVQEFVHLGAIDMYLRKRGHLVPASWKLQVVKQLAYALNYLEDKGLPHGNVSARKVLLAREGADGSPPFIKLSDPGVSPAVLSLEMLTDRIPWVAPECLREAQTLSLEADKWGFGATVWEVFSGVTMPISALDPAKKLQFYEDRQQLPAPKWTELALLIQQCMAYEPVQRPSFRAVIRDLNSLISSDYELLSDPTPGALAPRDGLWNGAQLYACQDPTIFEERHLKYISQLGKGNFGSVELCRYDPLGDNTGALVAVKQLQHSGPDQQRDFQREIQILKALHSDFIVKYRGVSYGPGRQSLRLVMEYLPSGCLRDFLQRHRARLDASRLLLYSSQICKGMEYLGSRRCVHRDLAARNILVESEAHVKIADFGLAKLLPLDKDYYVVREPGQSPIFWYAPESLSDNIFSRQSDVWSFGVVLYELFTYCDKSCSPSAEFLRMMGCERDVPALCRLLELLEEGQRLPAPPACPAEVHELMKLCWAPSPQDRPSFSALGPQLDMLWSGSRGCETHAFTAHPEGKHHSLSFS
Test: Enzymatic Inhibition Assay
Text: LC/MS grade water and acetonitrile (ACN), were purchased from HoneyWell, Burdick & Jackson (Muskegon, Mich., USA).

`CC(C)(O)CNC(=O)Cc1nc2cnc3[nH]ccc3c2n1C1CCC(CC#N)CC1` (stereo unspecified) [US11066406, Ex. 1] and `CC(C)(C#N)CNC(=O)Cc1nc2cnc3[nH]ccc3c2n1C1CCC(CC#N)CC1` (stereo unspecified) [US11066406, Ex. 7] are within 1.5-fold of each other in IC50: 92.2 nM for the first, 98.4 nM for the second.

`N#CC[C@H]1CC[C@H](n2c(CC(=O)NCC3CC3)nc3cnc4[nH]ccc4c32)CC1` [US11066406, Ex. 3] and `N#CCC1CCC(n2c(CC(=O)NCC3(O)CC3)nc3cnc4[nH]ccc4c32)CC1` (stereo unspecified) [US11066406, Ex. 12] are within 1.5-fold of each other in IC50: 82.8 nM for the first, 101 nM for the second.

`N#CCCNC(=O)Cc1nc2cnc3[nH]ccc3c2n1C1CCC(CC#N)CC1` (stereo unspecified) [US11066406, Ex. 4] and `N#CCC1CCC(n2c(CC(=O)NCC3(O)CCC3)nc3cnc4[nH]ccc4c32)CC1` (stereo unspecified) [US11066406, Ex. 8] are within 1.5-fold of each other in IC50: 96.2 nM for the first, 75.6 nM for the second.

First: N#CCC1CCC(n2c(CC(=O)NC3CCOCC3)nc3cnc4[nH]ccc4c32)CC1 (stereo unspecified) [US11066406, Ex. 5]
Second: Cn1cc(NC(=O)Cc2nc3cnc4[nH]ccc4c3n2C2CCC(CC#N)CC2)cn1 (stereo unspecified) [US11066406, Ex. 9]
The IC50 of the first is 3.5-fold lower: 23.1 nM for the first, 79.9 nM for the second.

Going from `N#CCC1(n2c(CC(=O)NCC3CCOCC3)nc3cnc4[nH]ccc4c32)CCCCC1` [US11066406, Ex. 6] to `N#CCC1CCC(n2c(CC(=O)NC34CCC(CC#N)(CC3)C4)nc3cnc4[nH]ccc4c32)CC1` (stereo unspecified) [US11066406, Ex. 10], the IC50 rises from 28.2 nM to 87.5 nM (3.1-fold). The first is the more potent here.

`N#CCC1CCC(n2c(CC(=O)Nc3cc[nH]n3)nc3cnc4[nH]ccc4c32)CC1` (stereo unspecified) [US11066406, Ex. 11] gave an IC50 of 30.3 nM.
